One block for each molecule: values may come before it. The source made the active and inactive calls. The rule behind the calls is not given here.
Key:
[1] = biological target: Amyloid-beta precursor protein (Homo sapiens, UniProt P05067); test: Aβ40 inhibition assay
[2] = biological target: 5-hydroxytryptamine receptor 1A (Homo sapiens) (UniProt P08908); conditions: Compound concentration 10.0 uM
[3] = biological target: 5-hydroxytryptamine receptor 1B (Homo sapiens, UniProt P28222); conditions: Compound concentration 10.0 uM
[4] = biological target: 5-hydroxytryptamine receptor 1D (Homo sapiens, UniProt P28221); conditions: Compound concentration 10.0 uM
[5] = biological target: 5-hydroxytryptamine receptor 2A (Homo sapiens, UniProt P28223); conditions: Compound concentration 10.0 uM
[6] = biological target: 5-hydroxytryptamine receptor 2B (Homo sapiens, UniProt P41595); conditions: Compound concentration 10.0 uM
[7] = biological target: 5-hydroxytryptamine receptor 2C (Homo sapiens) (UniProt P28335); conditions: Compound concentration 10.0 uM
5-hydroxytryptamine receptor 2C (Homo sapiens), sequence (P28335 whole entry): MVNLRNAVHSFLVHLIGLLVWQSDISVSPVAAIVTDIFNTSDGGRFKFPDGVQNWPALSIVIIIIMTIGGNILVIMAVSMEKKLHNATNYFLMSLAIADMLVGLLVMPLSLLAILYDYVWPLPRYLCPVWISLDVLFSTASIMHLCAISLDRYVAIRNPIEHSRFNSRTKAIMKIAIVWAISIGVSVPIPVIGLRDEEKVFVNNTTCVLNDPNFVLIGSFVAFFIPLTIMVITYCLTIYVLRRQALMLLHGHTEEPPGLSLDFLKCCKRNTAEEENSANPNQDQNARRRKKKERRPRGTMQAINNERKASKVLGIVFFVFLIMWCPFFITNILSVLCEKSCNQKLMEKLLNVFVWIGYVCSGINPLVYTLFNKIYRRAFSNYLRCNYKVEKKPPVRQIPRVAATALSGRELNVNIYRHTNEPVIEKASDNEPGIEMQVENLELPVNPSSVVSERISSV

[8] = biological target: 5-hydroxytryptamine receptor 3A (Homo sapiens) (UniProt P46098); conditions: Compound concentration 10.0 uM
[9] = biological target: 5-hydroxytryptamine receptor 5A (Homo sapiens) (UniProt P47898); conditions: Compound concentration 10.0 uM
[10] = biological target: 5-hydroxytryptamine receptor 6 (Homo sapiens) (UniProt P50406); conditions: Compound concentration 10.0 uM
[11] = biological target: 5-hydroxytryptamine receptor 7 (Homo sapiens, UniProt P34969); conditions: Compound concentration 10.0 uM
[12] = biological target: D(1A) dopamine receptor (Homo sapiens) (UniProt P21728); conditions: Compound concentration 10.0 uM
D(2) dopamine receptor = D(2) dopamine receptor (Homo sapiens, UniProt P14416); conditions: Compound concentration 10.0 uM
D(2) dopamine receptor, sequence (P14416 whole entry): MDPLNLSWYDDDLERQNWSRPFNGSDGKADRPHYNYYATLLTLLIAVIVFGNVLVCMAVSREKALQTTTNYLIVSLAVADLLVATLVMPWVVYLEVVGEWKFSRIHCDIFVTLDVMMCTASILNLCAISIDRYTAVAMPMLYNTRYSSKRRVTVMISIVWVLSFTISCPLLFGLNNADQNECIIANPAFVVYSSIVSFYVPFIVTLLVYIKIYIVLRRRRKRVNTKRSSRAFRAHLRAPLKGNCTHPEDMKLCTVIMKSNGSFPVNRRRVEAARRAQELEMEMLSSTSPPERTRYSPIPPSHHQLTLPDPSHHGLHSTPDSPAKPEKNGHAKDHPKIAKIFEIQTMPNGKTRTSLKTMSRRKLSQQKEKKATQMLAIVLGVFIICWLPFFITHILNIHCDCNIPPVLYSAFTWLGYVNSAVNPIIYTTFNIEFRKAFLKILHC

D(3) dopamine receptor = D(3) dopamine receptor (Homo sapiens, UniProt P35462); conditions: Compound concentration 10.0 uM
D(3) dopamine receptor, sequence (P35462 whole entry): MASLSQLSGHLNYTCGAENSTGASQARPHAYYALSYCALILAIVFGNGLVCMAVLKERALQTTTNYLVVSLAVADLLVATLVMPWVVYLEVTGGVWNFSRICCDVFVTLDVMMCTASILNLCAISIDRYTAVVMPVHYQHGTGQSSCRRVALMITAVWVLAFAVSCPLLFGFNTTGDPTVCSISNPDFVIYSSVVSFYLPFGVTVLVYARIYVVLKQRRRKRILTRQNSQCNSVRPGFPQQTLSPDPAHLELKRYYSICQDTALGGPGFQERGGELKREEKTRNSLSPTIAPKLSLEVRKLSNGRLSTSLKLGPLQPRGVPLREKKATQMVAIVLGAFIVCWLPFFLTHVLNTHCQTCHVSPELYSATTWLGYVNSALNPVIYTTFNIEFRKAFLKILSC

[13] = biological target: D(4) dopamine receptor (Homo sapiens) (UniProt P21917); conditions: Compound concentration 10.0 uM
[14] = biological target: D(1B) dopamine receptor (Homo sapiens) (UniProt P21918); conditions: Compound concentration 10.0 uM
[15] = biological target: Sodium-dependent serotonin transporter (Homo sapiens) (UniProt P31645); conditions: Compound concentration 10.0 uM
Sodium-dependent serotonin transporter (Homo sapiens), sequence (P31645 whole entry, looked up): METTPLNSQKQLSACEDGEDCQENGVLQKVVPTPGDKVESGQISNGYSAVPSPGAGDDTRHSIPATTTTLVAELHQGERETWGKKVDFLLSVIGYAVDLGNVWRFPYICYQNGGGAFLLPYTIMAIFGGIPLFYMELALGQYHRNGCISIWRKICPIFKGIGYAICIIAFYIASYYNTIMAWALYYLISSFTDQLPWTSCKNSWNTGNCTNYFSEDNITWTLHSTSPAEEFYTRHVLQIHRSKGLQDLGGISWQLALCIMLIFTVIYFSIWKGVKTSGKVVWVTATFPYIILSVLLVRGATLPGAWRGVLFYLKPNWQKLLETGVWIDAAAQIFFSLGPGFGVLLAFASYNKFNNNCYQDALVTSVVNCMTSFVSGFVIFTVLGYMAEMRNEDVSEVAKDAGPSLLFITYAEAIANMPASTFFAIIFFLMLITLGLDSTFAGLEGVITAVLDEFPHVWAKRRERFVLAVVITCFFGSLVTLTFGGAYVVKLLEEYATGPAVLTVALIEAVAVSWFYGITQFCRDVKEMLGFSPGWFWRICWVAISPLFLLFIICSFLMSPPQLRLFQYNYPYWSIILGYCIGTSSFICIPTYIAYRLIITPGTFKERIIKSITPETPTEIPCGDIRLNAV

[16] = biological target: Sodium-dependent noradrenaline transporter (Homo sapiens, UniProt P23975); conditions: Compound concentration 10.0 uM
[17] = biological target: Sodium-dependent dopamine transporter (Homo sapiens, UniProt Q01959); conditions: Compound concentration 10.0 uM
[18] = biological target: Mu-type opioid receptor (Homo sapiens) (UniProt P35372); conditions: Compound concentration 10.0 uM
[19] = biological target: Delta-type opioid receptor (Homo sapiens) (UniProt P41143); conditions: Compound concentration 10.0 uM
[20] = biological target: Kappa-type opioid receptor (Homo sapiens, UniProt P41145); conditions: Compound concentration 10.0 uM
Kappa-type opioid receptor, sequence (P41145 whole entry): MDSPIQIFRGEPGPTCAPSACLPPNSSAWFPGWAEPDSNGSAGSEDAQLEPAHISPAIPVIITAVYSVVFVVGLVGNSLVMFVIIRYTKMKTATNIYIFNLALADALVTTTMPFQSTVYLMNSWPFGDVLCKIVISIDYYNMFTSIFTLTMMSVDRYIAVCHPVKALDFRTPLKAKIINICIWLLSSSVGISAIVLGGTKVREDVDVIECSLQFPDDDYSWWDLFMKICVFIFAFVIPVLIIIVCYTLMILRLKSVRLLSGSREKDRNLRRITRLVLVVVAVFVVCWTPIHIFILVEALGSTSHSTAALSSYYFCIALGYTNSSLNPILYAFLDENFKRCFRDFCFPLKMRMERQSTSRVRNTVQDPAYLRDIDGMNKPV

[21] = biological target: Histamine H1 receptor (Homo sapiens) (UniProt P35367); conditions: Compound concentration 10.0 uM
[22] = biological target: Histamine H3 receptor (Homo sapiens) (UniProt Q9Y5N1); conditions: Compound concentration 10.0 uM
Histamine H3 receptor (Homo sapiens), sequence (Q9Y5N1 whole entry): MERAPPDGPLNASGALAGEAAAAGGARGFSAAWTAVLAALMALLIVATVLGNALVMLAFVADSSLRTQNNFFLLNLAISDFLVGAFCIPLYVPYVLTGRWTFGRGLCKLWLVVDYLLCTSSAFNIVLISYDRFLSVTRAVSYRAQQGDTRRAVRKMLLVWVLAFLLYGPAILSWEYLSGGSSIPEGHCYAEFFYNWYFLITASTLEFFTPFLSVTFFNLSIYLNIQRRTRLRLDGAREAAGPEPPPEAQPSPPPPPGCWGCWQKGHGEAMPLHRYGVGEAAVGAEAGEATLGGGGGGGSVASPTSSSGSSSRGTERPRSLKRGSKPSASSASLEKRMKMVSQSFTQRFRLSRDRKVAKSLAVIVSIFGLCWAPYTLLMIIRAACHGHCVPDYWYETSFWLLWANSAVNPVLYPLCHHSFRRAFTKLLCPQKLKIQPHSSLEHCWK

[23] = biological target: Alpha-1A adrenergic receptor (Homo sapiens) (UniProt P35348); conditions: Compound concentration 10.0 uM
[24] = biological target: Alpha-1B adrenergic receptor (Homo sapiens) (UniProt P35368); conditions: Compound concentration 10.0 uM
Alpha-1B adrenergic receptor (Homo sapiens), sequence (P35368 whole entry): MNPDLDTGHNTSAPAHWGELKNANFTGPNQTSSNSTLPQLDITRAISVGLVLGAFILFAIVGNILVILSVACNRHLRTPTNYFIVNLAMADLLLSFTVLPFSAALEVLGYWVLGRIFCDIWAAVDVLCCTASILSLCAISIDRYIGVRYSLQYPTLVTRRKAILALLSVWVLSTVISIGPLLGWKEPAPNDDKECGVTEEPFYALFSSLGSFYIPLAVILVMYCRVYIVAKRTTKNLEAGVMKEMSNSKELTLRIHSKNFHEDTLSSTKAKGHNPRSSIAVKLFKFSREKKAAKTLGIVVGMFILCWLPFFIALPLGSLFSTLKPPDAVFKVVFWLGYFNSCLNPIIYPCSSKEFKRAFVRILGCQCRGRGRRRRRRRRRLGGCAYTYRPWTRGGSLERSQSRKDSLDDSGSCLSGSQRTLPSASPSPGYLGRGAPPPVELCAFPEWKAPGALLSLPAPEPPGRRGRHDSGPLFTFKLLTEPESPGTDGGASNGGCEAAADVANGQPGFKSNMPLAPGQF

[25] = biological target: Alpha-2A adrenergic receptor (Homo sapiens) (UniProt P08913); conditions: Compound concentration 10.0 uM
[26] = biological target: Alpha-2B adrenergic receptor (Homo sapiens) (UniProt P18089); conditions: Compound concentration 10.0 uM
[27] = biological target: Alpha-2C adrenergic receptor (Homo sapiens) (UniProt P18825); conditions: Compound concentration 10.0 uM
[28] = biological target: Muscarinic acetylcholine receptor M1 (Homo sapiens) (UniProt P11229); conditions: Compound concentration 10.0 uM
[29] = biological target: Muscarinic acetylcholine receptor M2 (Homo sapiens) (UniProt P08172); conditions: Compound concentration 10.0 uM
[30] = biological target: Muscarinic acetylcholine receptor M4 (Homo sapiens) (UniProt P08173); conditions: Compound concentration 10.0 uM
[31] = biological target: Muscarinic acetylcholine receptor M5 (Homo sapiens) (UniProt P08912); conditions: Compound concentration 10.0 uM
Muscarinic acetylcholine receptor M5 (Homo sapiens), sequence (P08912 whole entry): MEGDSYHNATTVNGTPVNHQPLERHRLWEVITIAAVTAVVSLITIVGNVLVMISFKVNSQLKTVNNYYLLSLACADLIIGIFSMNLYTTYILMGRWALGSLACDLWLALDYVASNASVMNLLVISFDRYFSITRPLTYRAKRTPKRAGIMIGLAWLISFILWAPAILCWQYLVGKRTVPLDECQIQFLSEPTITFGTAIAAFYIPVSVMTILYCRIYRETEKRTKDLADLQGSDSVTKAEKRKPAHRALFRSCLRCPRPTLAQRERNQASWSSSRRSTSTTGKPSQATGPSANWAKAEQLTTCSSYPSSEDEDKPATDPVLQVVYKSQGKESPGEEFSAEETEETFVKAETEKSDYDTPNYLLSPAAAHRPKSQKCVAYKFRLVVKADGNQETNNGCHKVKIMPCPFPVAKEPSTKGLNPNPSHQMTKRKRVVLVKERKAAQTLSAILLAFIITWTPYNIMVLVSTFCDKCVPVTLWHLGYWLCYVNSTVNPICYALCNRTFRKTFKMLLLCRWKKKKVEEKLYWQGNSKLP

[32] = biological target: Beta-3 adrenergic receptor (Homo sapiens) (UniProt P13945); conditions: Compound concentration 10.0 uM
Beta-3 adrenergic receptor (Homo sapiens), sequence (P13945 whole entry, looked up): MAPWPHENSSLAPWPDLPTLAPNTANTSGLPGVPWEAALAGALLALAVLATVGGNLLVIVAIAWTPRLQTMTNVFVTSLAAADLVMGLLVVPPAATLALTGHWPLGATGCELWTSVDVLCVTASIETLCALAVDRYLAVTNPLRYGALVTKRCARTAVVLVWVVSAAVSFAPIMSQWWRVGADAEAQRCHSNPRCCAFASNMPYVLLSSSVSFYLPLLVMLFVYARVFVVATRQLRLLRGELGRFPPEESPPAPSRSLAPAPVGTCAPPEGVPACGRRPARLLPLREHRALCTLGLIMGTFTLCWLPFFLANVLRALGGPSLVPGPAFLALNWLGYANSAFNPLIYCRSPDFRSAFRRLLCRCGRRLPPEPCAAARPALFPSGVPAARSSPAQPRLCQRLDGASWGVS

[33] = biological target: GABA-A receptor; anion channel (Rattus norvegicus) (UniProt O09028+P15431+P18506+P18508+P19969+P20236+P23574+P23576+P28471+P28473+P30191+P62813+P63079+P63138+Q91ZM7+Q9ES14); conditions: Compound concentration 10.0 uM
[34] = biological target: Alpha-1D adrenergic receptor (Homo sapiens) (UniProt P25100); conditions: Compound concentration 10.0 uM
[35] = biological target: Sigma intracellular receptor 2 (Homo sapiens, UniProt Q5BJF2); conditions: Compound concentration 10.0 uM
[36] = biological target: Sigma non-opioid intracellular receptor 1 (Homo sapiens, UniProt Q99720); conditions: Compound concentration 10.0 uM
[37] = biological target: Tyrosine-protein kinase ABL1 (Homo sapiens) (UniProt P00519); conditions: Compound concentration 1000.0 nM
[38] = biological target: Tyrosine-protein kinase ABL2 (Homo sapiens) (UniProt P42684); conditions: Compound concentration 1000.0 nM
[39] = biological target: Beta-adrenergic receptor kinase 1 (Homo sapiens) (UniProt P25098); conditions: Compound concentration 1000.0 nM
[40] = biological target: Dual specificity mitogen-activated protein kinase kinase 7 (Homo sapiens) (UniProt O14733); conditions: Compound concentration 1000.0 nM
[41] = biological target: Serine/threonine-protein kinase Nek9 (Homo sapiens) (UniProt Q8TD19); conditions: Compound concentration 1000.0 nM
[42] = biological target: Platelet-derived growth factor receptor beta (Homo sapiens) (UniProt P09619); conditions: Compound concentration 1000.0 nM
[43] = biological target: Phosphatidylinositol 4,5-bisphosphate 3-kinase catalytic subunit delta isoform (Homo sapiens) (UniProt O00329); conditions: Compound concentration 1000.0 nM
[44] = biological target: Serine/threonine-protein kinase WNK1 (Homo sapiens) (UniProt Q9H4A3); conditions: Compound concentration 1000.0 nM

Amyloid-beta precursor protein, sequence (P05067 whole entry): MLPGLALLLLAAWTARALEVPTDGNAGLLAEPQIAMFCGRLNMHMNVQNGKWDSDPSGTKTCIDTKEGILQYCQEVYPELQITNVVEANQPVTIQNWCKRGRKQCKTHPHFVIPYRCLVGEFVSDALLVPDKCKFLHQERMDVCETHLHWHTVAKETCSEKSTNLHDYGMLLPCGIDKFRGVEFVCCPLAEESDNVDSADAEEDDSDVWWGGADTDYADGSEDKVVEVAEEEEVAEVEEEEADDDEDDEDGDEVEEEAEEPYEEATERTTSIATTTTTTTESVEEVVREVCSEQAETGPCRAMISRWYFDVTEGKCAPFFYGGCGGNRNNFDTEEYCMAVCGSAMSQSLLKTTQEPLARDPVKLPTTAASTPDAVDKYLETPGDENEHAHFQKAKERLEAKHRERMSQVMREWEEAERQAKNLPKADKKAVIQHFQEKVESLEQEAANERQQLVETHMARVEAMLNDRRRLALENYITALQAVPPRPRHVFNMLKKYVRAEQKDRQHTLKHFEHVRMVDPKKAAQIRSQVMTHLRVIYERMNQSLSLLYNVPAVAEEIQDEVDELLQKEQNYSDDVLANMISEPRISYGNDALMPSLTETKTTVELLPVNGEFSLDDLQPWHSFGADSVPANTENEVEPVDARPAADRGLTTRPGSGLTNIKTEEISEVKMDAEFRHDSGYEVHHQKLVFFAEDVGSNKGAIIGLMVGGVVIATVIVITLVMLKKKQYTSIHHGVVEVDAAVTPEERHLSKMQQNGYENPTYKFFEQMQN

- IC50 [1]: 1600 nM (not active)
- inhibition [2]: 66.3%
- inhibition [3]: 70.4%
- inhibition [4]: 61.4%
- inhibition [5]: 92.2%
- inhibition [6]: 97.2%
- inhibition [7]: 80.9%
- inhibition [8]: -5.6%
- inhibition [9]: 35%
- inhibition [10]: 37.1%
- inhibition [11]: 70.7%
- inhibition [12]: 13.8%
- inhibition (D(2) dopamine receptor): 83%
- inhibition (D(3) dopamine receptor): 86.1%
- inhibition [13]: 20.4%
- inhibition [14]: 13.1%
- inhibition [15]: 6.71%
- inhibition [16]: 50.7%
- inhibition [17]: 95.9%
- inhibition [18]: 49.1%
- inhibition [19]: 21.4%
- inhibition [20]: 69.8%
- inhibition [21]: 25.6%
- inhibition [22]: 26.9%
- inhibition [23]: 12.4%
- inhibition [24]: 41%
- inhibition [25]: 82.3%
- inhibition [26]: 77.4%
- inhibition [27]: 81.4%
- inhibition [28]: 8.44%
- inhibition [29]: 9.4%
- inhibition [30]: 25.6%
- inhibition [31]: 26.5%
- inhibition [32]: 25.6%
- inhibition [33]: 14.6%
- inhibition [34]: 22.5%
- inhibition [35]: 83.4%
- inhibition [36]: 91.6%
Structure (SMILES): CC(C)(C)OC(=O)N1CCCC1CNC1CCC(c2cc(F)ccc2F)(S(=O)(=O)c2ccc(Cl)cc2)CC1 (centres undefined) [GSI-NC]

Structure (SMILES): O=S(=O)(NC1CCC(c2cc(F)ccc2F)(S(=O)(=O)c2ccc(Cl)cc2)CC1)C(F)(F)F (centres undefined) [MRK-560]
- IC50 [1]: < 0.5 nM (active)
- residual activity [37]: 88%
- residual activity [38]: 100%
- residual activity [39]: 73%
- residual activity [40]: 100%
- residual activity [41]: 100%
- residual activity [42]: 100%
- residual activity [43]: 100%
- residual activity [44]: 100%
- inhibition [2]: 18.3%
- inhibition [3]: 15.4%
- inhibition [4]: 13.9%
- inhibition [5]: 31.2%
- inhibition [6]: 4.74%
- inhibition [7]: 12.3%
- inhibition [8]: -8.12%
- inhibition [9]: -5.05%
- inhibition [10]: 12.3%
- inhibition [11]: -5.02%
- inhibition [12]: 17.4%
- inhibition (D(2) dopamine receptor): 11.4%
- inhibition (D(3) dopamine receptor): 21.7%
- inhibition [13]: 20.1%
- inhibition [14]: 11.3%
- inhibition [15]: -3.67%
- inhibition [16]: 7.49%
- inhibition [17]: 75.1%
- inhibition [18]: 20%
- inhibition [19]: 20%
- inhibition [20]: 24.6%
- inhibition [21]: 20.3%
- inhibition [22]: 14.2%
- inhibition [23]: 9.88%
- inhibition [24]: -5.22%
- inhibition [25]: 8.45%
- inhibition [26]: -2.13%
- inhibition [27]: 18.2%
- inhibition [28]: -5.38%
- inhibition [29]: -0.654%
- inhibition [30]: 18.9%
- inhibition [31]: 1.96%
- inhibition [32]: 13.5%
- inhibition [33]: 28.6%
- inhibition [34]: 0.882%
- inhibition [35]: 25.2%
- inhibition [36]: 36.8%
